Source: ChEMBL document CHEMBL3286221, “Design and synthesis of novel 1,2,3-triazole derivatives of coronopilin as anti-cancer compounds” (Eur J Med Chem, 2014)

Key:
THP-1 = test: Cytotoxicity against human THP1 cells after 48 hrs by sulforhodamine B assay; type: functional, cell-based; conditions: THP-1, 48 h
PC-3 [1] = test: Cytotoxicity against human PC3 cells after 48 hrs by sulforhodamine B assay; type: functional, cell-based; conditions: PC-3, 48 h
[2] = Cytotoxicity against human HCT15 cells after 48 hrs by sulforhodamine B assay; type: functional, cell-based; conditions: HCT-15, 48 h
HeLa = test: Cytotoxicity against human HeLa cells after 48 hrs by sulforhodamine B assay; type: functional, cell-based
A549 = test: Cytotoxicity against human A549 cells after 48 hrs by sulforhodamine B assay; type: functional, cell-based; conditions: A549, 48 h
MCF7 = test: Cytotoxicity against human MCF7 cells after 48 hrs by sulforhodamine B assay; type: functional, cell-based; conditions: MCF7, 48 h
PC-3 [3] = test: Cell cycle arrest in human PC3 cells assessed as accumulation at sub-G1 phase after 24 hrs by propidium iodide staining-based flow cytometric analysis; type: functional
PC-3 [4] = test: Cell cycle arrest in human PC3 cells assessed as accumulation at sub-G1 phase at 1 uM after 24 hrs by propidium iodide staining-based flow cytometric analysis (reference value: 13.1%); type: functional
PC-3 [5] = test: Cell cycle arrest in human PC3 cells assessed as accumulation at G0/G1 phase at 1 uM after 24 hrs by propidium iodide staining-based flow cytometric analysis (reference value: 68.2%); type: functional
PC-3 [6] = test: Cell cycle arrest in human PC3 cells assessed as accumulation at S phase at 1 uM after 24 hrs by propidium iodide staining-based flow cytometric analysis (reference value: 8.5%); type: functional
PC-3 [7] = test: Cell cycle arrest in human PC3 cells assessed as accumulation at M phase at 1 uM after 24 hrs by propidium iodide staining-based flow cytometric analysis (reference value: 3%); type: functional
PC-3 [8] = test: Cell cycle arrest in human PC3 cells assessed as accumulation at sub-G1 phase at 5 uM after 24 hrs by propidium iodide staining-based flow cytometric analysis (reference value: 13.1%); type: functional
PC-3 [9] = test: Cell cycle arrest in human PC3 cells assessed as accumulation at G0/G1 phase at 5 uM after 24 hrs by propidium iodide staining-based flow cytometric analysis (reference value: 68.2%); type: functional
PC-3 [10] = test: Cell cycle arrest in human PC3 cells assessed as accumulation at S phase at 5 uM after 24 hrs by propidium iodide staining-based flow cytometric analysis (reference value: 8.5%); type: functional
PC-3 [11] = test: Cell cycle arrest in human PC3 cells assessed as accumulation at M phase at 5 uM after 24 hrs by propidium iodide staining-based flow cytometric analysis (reference value: 3%); type: functional
PC-3 [12] = test: Cell cycle arrest in human PC3 cells assessed as accumulation at sub-G1 phase at 10 uM after 24 hrs by propidium iodide staining-based flow cytometric analysis (reference value: 13.1%); type: functional
PC-3 [13] = test: Cell cycle arrest in human PC3 cells assessed as accumulation at G0/G1 phase at 10 uM after 24 hrs by propidium iodide staining-based flow cytometric analysis (reference value: 68.2%); type: functional
PC-3 [14] = test: Cell cycle arrest in human PC3 cells assessed as accumulation at S phase at 10 uM after 24 hrs by propidium iodide staining-based flow cytometric analysis (reference value: 8.5%); type: functional
PC-3 [15] = test: Cell cycle arrest in human PC3 cells assessed as accumulation at M phase at 10 uM after 24 hrs by propidium iodide staining-based flow cytometric analysis (reference value: 3%); type: functional
[16] = molecular target: Transcription factor p65 (Homo sapiens) (UniProt Q04206); test: Inhibition of NFkappaB p65 binding to consensus DNA sequence in human PC3 cells after 24 hrs by ELISA; type: cell-based; conditions: PC-3
Transcription factor p65 (Homo sapiens), sequence (Q04206 whole entry): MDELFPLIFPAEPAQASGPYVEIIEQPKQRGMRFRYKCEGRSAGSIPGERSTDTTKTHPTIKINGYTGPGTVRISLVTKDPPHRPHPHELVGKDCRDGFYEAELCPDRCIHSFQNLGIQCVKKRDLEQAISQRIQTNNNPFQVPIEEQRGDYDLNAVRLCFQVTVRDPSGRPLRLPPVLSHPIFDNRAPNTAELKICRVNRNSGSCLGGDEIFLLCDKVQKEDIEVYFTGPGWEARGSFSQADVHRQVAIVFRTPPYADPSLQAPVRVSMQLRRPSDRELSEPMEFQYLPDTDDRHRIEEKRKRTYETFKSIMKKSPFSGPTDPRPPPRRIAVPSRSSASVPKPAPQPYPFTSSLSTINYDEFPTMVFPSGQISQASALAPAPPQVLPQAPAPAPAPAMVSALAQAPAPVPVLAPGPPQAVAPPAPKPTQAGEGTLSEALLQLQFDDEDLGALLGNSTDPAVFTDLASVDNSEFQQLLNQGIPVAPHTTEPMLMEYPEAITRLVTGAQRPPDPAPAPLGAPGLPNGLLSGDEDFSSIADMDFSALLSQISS

[17] = molecular target: Transcription factor p65 (Homo sapiens) (UniProt Q04206); test: Inhibition of NFkappaB p65 binding to consensus DNA sequence in human PC3 cells after 24 hrs by Western blotting analysis; type: cell-based; conditions: PC-3
[18] = molecular target: Transcription factor p65 (Homo sapiens) (UniProt Q04206); test: Inhibition of NFkappaB p65 binding to consensus DNA sequence in human PC3 cells at 100 uM after 24 hrs by ELISA relative to control; type: cell-based; conditions: PC-3
[19] = molecular target: Transcription factor p65 (Homo sapiens) (UniProt Q04206); test: Inhibition of NFkappaB p65 binding to consensus DNA sequence in human PC3 cells at 100 uM after 24 hrs by Western blotting analysis relative to control; type: cell-based; conditions: PC-3

SMILES | IC50 (THP-1) [µM] | IC50 (PC-3 [1]) [µM] | IC50 [2] [µM] | IC50 (HeLa) [µM] | IC50 (A549) [µM] | IC50 (MCF7) [µM] | also measured
C=C1C(=O)O[C@@H]2[C@H]1CC[C@H](C)[C@]1(O)[C@@H](n3cc(COc4ccccc4Cl)nn3)CC(=O)[C@@]21C | 3.8 | 3.1 | 5.3 | 3.6 | 4.2 | 9.7 | Activity (PC-3 [3]): Dose-dependent effect; Activity (PC-3 [4]): 38.8%; Activity (PC-3 [5]): 52.3%; Activity (PC-3 [6]): 4.2%; Activity (PC-3 [7]): 1%; Activity (PC-3 [8]): 39.9%; Activity (PC-3 [9]): 51.2%; Activity (PC-3 [10]): 3.5%; Activity (PC-3 [11]): 1.9%; Activity (PC-3 [12]): 49.2%; Activity (PC-3 [13]): 50.7%; Activity (PC-3 [14]): 3%; Activity (PC-3 [15]): 1%; inhibition [16]: Dose-dependent effect; inhibition [17]: Dose-dependent effect; inhibition [18]: 80%; inhibition [19]: 80%
COc1cccc2c1C(=O)c1c(O)c3c(c(O)c1C2=O)C[C@@](O)(C(=O)CO)C[C@@H]3O[C@H]1C[C@H](N)[C@H](O)[C@H](C)O1 [DOXORUBICIN] |  |  |  |  |  | 0.5 | 
CC[C@@]1(O)C(=O)OCc2c1cc1n(c2=O)Cc2cc3ccccc3nc2-1 [CAMPTOTHECIN] |  |  |  |  |  |  | Activity (PC-3 [8]): 60.44%; Activity (PC-3 [9]): 30.17%; Activity (PC-3 [10]): 4.94%; Activity (PC-3 [11]): 4.76%
C=C1C(=O)O[C@@H]2[C@H]1CC[C@H](C)[C@]1(O)[C@@H](n3cc(CNc4ccccc4Br)nn3)CC(=O)[C@@]21C | 100 |  | 20 | 4.8 | 100 | 4.2 | 
O=c1[nH]cc(F)c(=O)[nH]1 [FLUOROURACIL] |  |  | 4.5 | 4.9 |  |  | 
C=C1C(=O)O[C@@H]2[C@H]1CC[C@H](C)[C@]1(O)[C@@H](n3cc(CCC)nn3)CC(=O)[C@@]21C |  | 100 | 5.5 | 8.4 | 12 | 14 | 
C=C1C(=O)O[C@@H]2[C@H]1CC[C@H](C)[C@]1(O)[C@@H](n3cc(COc4ccc(Br)cc4)nn3)CC(=O)[C@@]21C | 10 | 4.7 | 48 | 6.5 | 14 | 16 | 
C=C1C(=O)O[C@@H]2[C@H]1CC[C@H](C)[C@]1(O)[C@@H](n3cc(CNc4ccccc4F)nn3)CC(=O)[C@@]21C |  | 3.3 | 100 | 3.7 | 34 | 5.1 | 
C=C1C(=O)O[C@@H]2[C@H]1CC[C@H](C)[C@]1(O)[C@@H](n3cc(COc4ccccc4C)nn3)CC(=O)[C@@]21C | 3.8 | 10 | 5.5 | 8.4 | 6.2 | 3.7 | 
C=C1C(=O)O[C@@H]2[C@H]1CC[C@H](C)[C@]1(O)[C@@H](n3cc(COc4ccc(C)cc4)nn3)CC(=O)[C@@]21C | 26 | 7.6 | 39 | 100 | 21 | 4.2 | 
C=C1C(=O)O[C@@H]2[C@H]1CC[C@H](C)[C@]1(O)[C@@H](n3cc(CNn4ccc5cc(Br)ccc54)nn3)CC(=O)[C@@]21C |  |  | 26 | 7.2 | 100 | 4.5 | 
C=C1C(=O)O[C@@H]2[C@H]1CC[C@H](C)[C@]1(O)[C@@H](n3cc(COc4ccc(C(F)(F)F)cc4)nn3)CC(=O)[C@@]21C | 48 | 6.4 | 100 | 3.5 | 3.8 | 13 | 
C=C1C(=O)O[C@@H]2[C@H]1CC[C@H](C)[C@]1(O)C=CC(=O)[C@@]21C [PARTHENIN] | 46.2 | 43.1 | 35.3 |  | 37.6 | 40.2 | 
C=C1C(=O)O[C@@H]2[C@H]1CC[C@H](C)[C@]1(O)[C@@H](n3cc(CCc4ccccc4)nn3)CC(=O)[C@@]21C | 100 |  | 4.3 | 16 | 5.8 | 16 | 
C=C1C(=O)O[C@@H]2[C@H]1CC[C@H](C)[C@]1(O)[C@@H](n3cc(COc4ccccc4F)nn3)CC(=O)[C@@]21C | 25 | 4.3 | 23 | 3.9 | 6.3 | 4.3 | 
C=C1C(=O)O[C@@H]2[C@H]1CC[C@H](C)[C@]1(O)[C@@H](n3cc(CNc4ccc(F)cc4)nn3)CC(=O)[C@@]21C | 100 |  | 6.5 | 15 | 100 | 15 | 
C=C1C(=O)O[C@@H]2[C@H]1CC[C@H](C)[C@]1(O)[C@@H](n3cc(COc4ccccc4Br)nn3)CC(=O)[C@@]21C | 19 | 5.6 | 12 | 4.8 | 8.8 | 3.4 | 
C=C1C(=O)O[C@@H]2[C@H]1CC[C@H](C)[C@]1(O)[C@@H](n3cc(COc4ccc(Cl)cc4)nn3)CC(=O)[C@@]21C | 12 | 5.2 | 27 | 3.6 | 4.1 | 7 | 
C=C1C(=O)O[C@@H]2[C@H]1CC[C@H](C)[C@]1(O)[C@@H](n3cc(COc4ccc5ccccc5c4)nn3)CC(=O)[C@@]21C | 25 | 3.6 | 20 | 7.3 | 9 | 24 | 
C=C1C(=O)O[C@@H]2[C@H]1CC[C@H](C)[C@]1(O)[C@@H](n3cc(CNc4ccccc4OC)nn3)CC(=O)[C@@]21C | 100 |  | 15 | 28 | 23 | 28 | 
C=C1C(=O)O[C@@H]2[C@H]1CC[C@H](C)[C@]1(O)[C@@H](n3cc(COc4ccc(C(C)C)cc4C)nn3)CC(=O)[C@@]21C | 33 | 7.5 | 45 | 6.8 | 21 | 32 | 
CO[C@@]12[C@H](COC(N)=O)C3=C(C(=O)C(C)=C(N)C3=O)N1C[C@@H]1N[C@@H]12 [MITOMYCIN] |  |  | 0.5 |  |  |  | 
C=C1C(=O)O[C@@H]2[C@H]1CC[C@H](C)[C@]1(O)[C@@H](n3cc(CNc4ccccc4C)nn3)CC(=O)[C@@]21C | 17 | 4.6 | 8.5 | 3.9 | 23 | 15 | 
C=C1C(=O)O[C@@H]2[C@H]1CC[C@H](C)[C@]1(O)[C@@H](n3cc(CNc4ccc(COC(F)(F)F)cc4)nn3)CC(=O)[C@@]21C |  |  | 100 | 17 | 23 | 17 | 
